Test results taken from article PMC5218480 (PLoS ONE, 2017).

Test system: MV-4-11 cells
Assay: Gene expression microarray analysis (Affymetrix PrimeView) and GSEA
Type: cell-based, human
Parameters: RFU PODN (11730768_x_at) / Fold change /veh PODN (11730768_x_at) / RFU LINC00158 (11744669_a_at) / Fold change /veh LINC00158 (11744669_a_at) / RFU DUSP10 (11751237_a_at) / Fold change /veh DUSP10 (11751237_a_at) / RFU ID3 (11757404_x_at) / Fold change /veh ID3 (11757404_x_at) / RFU PLEKHG5 (11737974_s_at) / Fold change /veh PLEKHG5 (11737974_s_at) / RFU LRRC4B (11730491_at) / Fold change /veh LRRC4B (11730491_at) / RFU GIMAP4 (11747438_a_at) / Fold change /veh GIMAP4 (11747438_a_at) / RFU KRT8 (11758183_x_at) / Fold change /veh KRT8 (11758183_x_at) / RFU CNN1 (11734310_a_at) / Fold change /veh CNN1 (11734310_a_at) / RFU VPS37D (11726825_at) / Fold change /veh VPS37D (11726825_at) / RFU C10orf10 (11716522_x_at) / Fold change /veh C10orf10 (11716522_x_at) / RFU KIR2DL2 /// KIR2DL4 /// KIR2DL5A /// KIR2DL5B /// KIR2DS1 /// KIR2DS2 /// KIR2DS3 /// KIR2DS4 /// KIR3DL3 /// KIR3DL3 /// KIR3DS1 (11738374_at) / Fold change /veh KIR2DL2 /// KIR2DL4 /// KIR2DL5A /// KIR2DL5B /// KIR2DS1 /// KIR2DS2 /// KIR2DS3 /// KIR2DS4 /// KIR3DL3 /// KIR3DL3 /// KIR3DS1 (11738374_at) / RFU C1QL1 (11718748_at) / Fold change /veh C1QL1 (11718748_at) / RFU TMPRSS4 (11747572_a_at) / Fold change /veh TMPRSS4 (11747572_a_at) / RFU HAMP (11756126_x_at) / Fold change /veh HAMP (11756126_x_at) / RFU RNFT2 (11725882_a_at) / Fold change /veh RNFT2 (11725882_a_at) / RFU NR4A2 (11747474_a_at) / Fold change /veh NR4A2 (11747474_a_at) / RFU ABCC12 (11746883_a_at) / Fold change /veh ABCC12 (11746883_a_at) / RFU TMEM136 (11760407_x_at) / Fold change /veh TMEM136 (11760407_x_at) / RFU CLDN22 /// WWC2 (11732394_at) / Fold change /veh CLDN22 /// WWC2 (11732394_at) / RFU HLA-DPB1 (11760878_x_at) / Fold change /veh HLA-DPB1 (11760878_x_at) / RFU SPINT1 (11716480_a_at) / Fold change /veh SPINT1 (11716480_a_at) / RFU GAP43 (11754022_s_at) / Fold change /veh GAP43 (11754022_s_at) / RFU A4GNT (11735810_at) / Fold change /veh A4GNT (11735810_at) / RFU PRB3 (11715151_x_at) / Fold change /veh PRB3 (11715151_x_at) / RFU TUBB4B (11761932_at) / Fold change /veh TUBB4B (11761932_at) / RFU CAPN14 (11732068_a_at) / Fold change /veh CAPN14 (11732068_a_at) / RFU TMCC2 (11721928_a_at) / Fold change /veh TMCC2 (11721928_a_at) / RFU IRGQ (11745062_a_at) / Fold change /veh IRGQ (11745062_a_at) / RFU FAM174B (11720279_a_at) / Fold change /veh FAM174B (11720279_a_at) / RFU TMPRSS4 (11748680_a_at) / Fold change /veh TMPRSS4 (11748680_a_at) / RFU FAM212B (11763350_a_at) / Fold change /veh FAM212B (11763350_a_at) / RFU PLEKHG5 (11743358_a_at) / Fold change /veh PLEKHG5 (11743358_a_at) / RFU ZSCAN30 (11745921_a_at) / Fold change /veh ZSCAN30 (11745921_a_at) / RFU CMKLR1 (11741424_a_at) / Fold change /veh CMKLR1 (11741424_a_at) / RFU LOC101060620 /// MAPK8IP1 (11723275_at) / Fold change /veh LOC101060620 /// MAPK8IP1 (11723275_at) / RFU SPTSSB (11747773_x_at) / Fold change /veh SPTSSB (11747773_x_at) / RFU PRSS12 (11739890_at) / Fold change /veh PRSS12 (11739890_at) / RFU BIN1 (11741810_x_at) / Fold change /veh BIN1 (11741810_x_at) / RFU WNT11 (11732464_a_at) / Fold change /veh WNT11 (11732464_a_at) / RFU C10orf10 (11716521_a_at) / Fold change /veh C10orf10 (11716521_a_at) / RFU C5orf56 (11738089_at) / Fold change /veh C5orf56 (11738089_at) / RFU CYB561 (11721691_x_at) / Fold change /veh CYB561 (11721691_x_at) / RFU ANKRD19P (11752326_a_at) / Fold change /veh ANKRD19P (11752326_a_at) / RFU OR2T12 /// OR2T33 /// OR2T8 (11738714_s_at) / Fold change /veh OR2T12 /// OR2T33 /// OR2T8 (11738714_s_at) / RFU VCAN (11748164_a_at) / Fold change /veh VCAN (11748164_a_at) / RFU JSRP1 (11732532_at) / Fold change /veh JSRP1 (11732532_at) / RFU KRTAP10-11 (11738290_x_at) / Fold change /veh KRTAP10-11 (11738290_x_at) / RFU MYO3A (11730013_a_at) / Fold change /veh MYO3A (11730013_a_at) / RFU EBF3 (11725865_a_at) / Fold change /veh EBF3 (11725865_a_at) / RFU CAMK2N1 (11719241_x_at) / Fold change /veh CAMK2N1 (11719241_x_at) / RFU C5orf56 (11738088_a_at) / Fold change /veh C5orf56 (11738088_a_at) / RFU OLFML3 (11715873_a_at) / Fold change /veh OLFML3 (11715873_a_at) / RFU LOC100653217 /// NTM (11731650_a_at) / Fold change /veh LOC100653217 /// NTM (11731650_a_at) / RFU MAPK11 (11762145_a_at) / Fold change /veh MAPK11 (11762145_a_at) / RFU FIZ1 (11724087_x_at) / Fold change /veh FIZ1 (11724087_x_at) / RFU OASL (11726364_x_at) / Fold change /veh OASL (11726364_x_at) / RFU SOX15 (11748057_x_at) / Fold change /veh SOX15 (11748057_x_at) / RFU CD79A (11719716_a_at) / Fold change /veh CD79A (11719716_a_at) / RFU HIST1H1D (11736915_at) / Fold change /veh HIST1H1D (11736915_at) / RFU CASKIN2 (11723855_a_at) / Fold change /veh CASKIN2 (11723855_a_at) / RFU LOC730098 (11760151_x_at) / Fold change /veh LOC730098 (11760151_x_at) / RFU OR4N2 (11742367_at) / Fold change /veh OR4N2 (11742367_at) / RFU PRRT2 (11749266_a_at) / Fold change /veh PRRT2 (11749266_a_at) / RFU SNX32 (11753110_a_at) / Fold change /veh SNX32 (11753110_a_at) / RFU CDHR5 (11726645_a_at) / Fold change /veh CDHR5 (11726645_a_at) / RFU RCAN1 (11760418_a_at) / Fold change /veh RCAN1 (11760418_a_at) / RFU FAM167A (11723789_a_at) / Fold change /veh FAM167A (11723789_a_at) / RFU FAM26E (11764081_at) / Fold change /veh FAM26E (11764081_at) / RFU ISYNA1 (11749810_s_at) / Fold change /veh ISYNA1 (11749810_s_at) / RFU ACY1 (11761880_at) / Fold change /veh ACY1 (11761880_at) / RFU 11764098_at / Fold change /veh 11764098_at / RFU SAMD14 (11745864_x_at) / Fold change /veh SAMD14 (11745864_x_at) / RFU NPB (11741838_a_at) / Fold change /veh NPB (11741838_a_at) / RFU TMPRSS6 (11731388_a_at) / Fold change /veh TMPRSS6 (11731388_a_at) / RFU KRTAP10-2 (11738614_at) / Fold change /veh KRTAP10-2 (11738614_at) / RFU ARHGAP8 /// PRR5-ARHGAP8 (11727945_x_at) / Fold change /veh ARHGAP8 /// PRR5-ARHGAP8 (11727945_x_at) / RFU KRTAP5-7 /// NADSYN1 (11734609_at) / Fold change /veh KRTAP5-7 /// NADSYN1 (11734609_at) / RFU RASL12 (11751679_a_at) / Fold change /veh RASL12 (11751679_a_at) / RFU CDKN2B (11736163_a_at) / Fold change /veh CDKN2B (11736163_a_at) / RFU PRF1 (11729649_at) / Fold change /veh PRF1 (11729649_at) / RFU, ZNF638 /// ZNF638-IT1 / Fold change vs veh, ZNF638 /// ZNF638-IT1 / RFU, PANK3 / Fold change vs veh, PANK3 / RFU, SH3YL1 / Fold change vs veh, SH3YL1 / RFU, ZEB2 / Fold change vs veh, ZEB2 / RFU, NRIP1 / Fold change vs veh, NRIP1 / RFU, PTTG1IP / Fold change vs veh, PTTG1IP / RFU, CAPN2 / Fold change vs veh, CAPN2 / RFU, MED14 / Fold change vs veh, MED14 / RFU, SNORA58 / Fold change vs veh, SNORA58 / RFU, C1orf63 / Fold change vs veh, C1orf63 / RFU, LRRFIP1 / Fold change vs veh, LRRFIP1 / RFU, NDUFAF7 / Fold change vs veh, NDUFAF7 / RFU, SLC12A2 / Fold change vs veh, SLC12A2 / RFU, IBTK / Fold change vs veh, IBTK / RFU, ESF1 / Fold change vs veh, ESF1 / Fold change vs veh, TMEM50B / RFU, TAOK1 / Fold change vs veh, TAOK1 / RFU, ACBD3 / Fold change vs veh, ACBD3 / RFU, TMA16 / Fold change vs veh, TMA16 / RFU, RWDD3 / Fold change vs veh, RWDD3 / RFU, BCAT1 / Fold change vs veh, BCAT1 / RFU, EDEM3 / Fold change vs veh, EDEM3 / RFU, TMEM33 / Fold change vs veh, TMEM33 / RFU, WDR75 / Fold change vs veh, WDR75 / RFU, AHCTF1 / Fold change vs veh, AHCTF1 / RFU, TFRC / Fold change vs veh, TFRC / RFU, ZDHHC17 / Fold change vs veh, ZDHHC17 / RFU, NOM1 / Fold change vs veh, NOM1 / RFU, ARL8B / Fold change vs veh, ARL8B / RFU, ZBTB11 / Fold change vs veh, ZBTB11 / RFU, TAMM41 / Fold change vs veh, TAMM41 / RFU, KIAA1704 /// LOC100996395 / Fold change vs veh, KIAA1704 /// LOC100996395 / RFU, ING1 / Fold change vs veh, ING1 / RFU, TRMT61B / Fold change vs veh, TRMT61B / RFU, FUBP3 / Fold change vs veh, FUBP3 / RFU, TP53 / Fold change vs veh, TP53 / RFU, TNKS2 / Fold change vs veh, TNKS2 / RFU, ZFP14 / Fold change vs veh, ZFP14 / RFU, ACTR2 / Fold change vs veh, ACTR2 / RFU, PPP3R1 / Fold change vs veh, PPP3R1 / RFU, PIK3R1 / Fold change vs veh, PIK3R1 / RFU, HNRNPA1 / Fold change vs veh, HNRNPA1 / RFU, RNF170 / Fold change vs veh, RNF170 / RFU, ZNF28 / Fold change vs veh, ZNF28 / RFU, RNGTT / Fold change vs veh, RNGTT / RFU, OGT / Fold change vs veh, OGT / RFU, BRD1 / Fold change vs veh, BRD1 / RFU, MARS / Fold change vs veh, MARS / RFU, ZNF655 / Fold change vs veh, ZNF655 / RFU, FAHD1 / Fold change vs veh, FAHD1 / RFU, BDP1 / Fold change vs veh, BDP1 / RFU, LRRCC1 / Fold change vs veh, LRRCC1 / RFU, ARID1A / Fold change vs veh, ARID1A / RFU, ZNF146 / Fold change vs veh, ZNF146 / RFU, ZNF330 / Fold change vs veh, ZNF330 / RFU, GPN3 / Fold change vs veh, GPN3 / RFU, C9orf123 / Fold change vs veh, C9orf123 / RFU, N4BP2L2 / Fold change vs veh, N4BP2L2 / RFU, ARFIP1 / Fold change vs veh, ARFIP1 / RFU, FAM179B / Fold change vs veh, FAM179B / RFU, BCL10 / Fold change vs veh, BCL10 / RFU, UHRF1BP1L / Fold change vs veh, UHRF1BP1L / RFU, BET1 / Fold change vs veh, BET1 / RFU, CNOT2 / Fold change vs veh, CNOT2 / RFU, ZNF268 / Fold change vs veh, ZNF268 / Fold change vs veh, ZNF507 / RFU, DGCR2 / Fold change vs veh, DGCR2 / RFU, WDSUB1 / Fold change vs veh, WDSUB1 / Fold change vs veh, HSP90B1 /// MIR3652 / RFU, ADSS / Fold change vs veh, ADSS / RFU, GK / Fold change vs veh, GK / RFU, ZNF148 / Fold change vs veh, ZNF148 / RFU, TAF9 / Fold change vs veh, TAF9 / RFU, SLC1A5 / Fold change vs veh, SLC1A5 / RFU, SLMO2 / Fold change vs veh, SLMO2 / RFU, ABCC4 / Fold change vs veh, ABCC4 / RFU, LOC101060439 /// RAP1B / Fold change vs veh, LOC101060439 /// RAP1B / RFU, RFX7 / Fold change vs veh, RFX7 / RFU, GTPBP10 / Fold change vs veh, GTPBP10 / RFU, CNEP1R1 / Fold change vs veh, CNEP1R1 / RFU, BIVM-ERCC5 /// ERCC5 / Fold change vs veh, BIVM-ERCC5 /// ERCC5 / RFU, ILF3 / Fold change vs veh, ILF3 / RFU 11762660_at / Fold change /veh 11762660_at / RFU VCAN (11757783_s_at) / Fold change /veh VCAN (11757783_s_at) / RFU DDX43 (11728927_at) / Fold change /veh DDX43 (11728927_at) / RFU KRT8 (11758188_x_at) / Fold change /veh KRT8 (11758188_x_at) / RFU NKD1 (11759106_at) / Fold change /veh NKD1 (11759106_at) / RFU SRD5A1 (11742802_a_at) / Fold change /veh SRD5A1 (11742802_a_at) / RFU TPSAB1 /// TPSB2 (11721975_s_at) / Fold change /veh TPSAB1 /// TPSB2 (11721975_s_at) / RFU GSTM3 (11746129_a_at) / Fold change /veh GSTM3 (11746129_a_at) / RFU IL23R (11737362_x_at) / Fold change /veh IL23R (11737362_x_at) / RFU TMEM51 (11727254_a_at) / Fold change /veh TMEM51 (11727254_a_at) / RFU PIWIL2 (11732686_x_at) / Fold change /veh PIWIL2 (11732686_x_at) / RFU ORM1 (11744905_x_at) / Fold change /veh ORM1 (11744905_x_at) / RFU CCDC152 (11743942_at) / Fold change /veh CCDC152 (11743942_at) / RFU ECM1 (11717891_a_at) / Fold change /veh ECM1 (11717891_a_at) / RFU IL23R (11748794_a_at) / Fold change /veh IL23R (11748794_a_at) / RFU TNFAIP8L3 (11732012_x_at) / Fold change /veh TNFAIP8L3 (11732012_x_at) / RFU MBOAT4 (11741988_at) / Fold change /veh MBOAT4 (11741988_at) / RFU 11764193_at / Fold change /veh 11764193_at / RFU TMEM53 (11763286_at) / Fold change /veh TMEM53 (11763286_at) / RFU MAGEB2 (11727129_at) / Fold change /veh MAGEB2 (11727129_at) / RFU TMEM200A (11744735_a_at) / Fold change /veh TMEM200A (11744735_a_at) / RFU CCDC152 (11751479_a_at) / Fold change /veh CCDC152 (11751479_a_at) / RFU FAM211A (11726209_a_at) / Fold change /veh FAM211A (11726209_a_at) / RFU RGS16 (11746705_a_at) / Fold change /veh RGS16 (11746705_a_at) / RFU VCAN (11755009_s_at) / Fold change /veh VCAN (11755009_s_at) / RFU RHOB (11743442_s_at) / Fold change /veh RHOB (11743442_s_at) / RFU RGS16 (11720943_a_at) / Fold change /veh RGS16 (11720943_a_at) / RFU RGS16 (11720944_at) / Fold change /veh RGS16 (11720944_at) / RFU, VPS4B / Fold change vs veh, VPS4B / RFU, CREB1 / Fold change vs veh, CREB1 / RFU, DNAJC13 / Fold change vs veh, DNAJC13 / RFU, GNAQ / Fold change vs veh, GNAQ / RFU, CDK5R1 / Fold change vs veh, CDK5R1 / RFU, ZRANB3 / Fold change vs veh, ZRANB3 / RFU, CUL4A / Fold change vs veh, CUL4A / RFU, CCNY / Fold change vs veh, CCNY / RFU, UFL1 / Fold change vs veh, UFL1 / RFU, COG3 / Fold change vs veh, COG3 / RFU, DIAPH2 / Fold change vs veh, DIAPH2 / RFU, SKA2 / Fold change vs veh, SKA2 / RFU, AFF3 / Fold change vs veh, AFF3 / RFU, LMF1 / Fold change vs veh, LMF1 / RFU, IPO11 / Fold change vs veh, IPO11 / RFU, DFFB / Fold change vs veh, DFFB / RFU, FOXP1 / Fold change vs veh, FOXP1 / RFU, CARD8 / Fold change vs veh, CARD8 / RFU, STRN3 / Fold change vs veh, STRN3 / RFU, ADK / Fold change vs veh, ADK / RFU, RASSF2 / Fold change vs veh, RASSF2 / RFU, WIPF1 / Fold change vs veh, WIPF1 / RFU, LARP1B / Fold change vs veh, LARP1B / RFU, RASA1 / Fold change vs veh, RASA1 / RFU, RB1 / Fold change vs veh, RB1 / RFU, PPFIA1 / Fold change vs veh, PPFIA1 / RFU, MAT2A / Fold change vs veh, MAT2A / RFU, CCT5 / Fold change vs veh, CCT5 / RFU, WDR92 / Fold change vs veh, WDR92 / RFU, CUX1 / Fold change vs veh, CUX1 / RFU, TTC7A / Fold change vs veh, TTC7A / RFU, TMEM135 / Fold change vs veh, TMEM135 / RFU, DEPTOR / Fold change vs veh, DEPTOR / RFU, CPM / Fold change vs veh, CPM / RFU, DNAJB6 / Fold change vs veh, DNAJB6 / RFU, CACNA2D3 / Fold change vs veh, CACNA2D3 / RFU, DTX4 / Fold change vs veh, DTX4 / RFU, TFCP2 / Fold change vs veh, TFCP2 / RFU, GMCL1 /// GMCL1P1 / Fold change vs veh, GMCL1 /// GMCL1P1 / RFU, AEBP2 / Fold change vs veh, AEBP2 / RFU, SNHG1 /// SNORD22 /// SNORD25 /// SNORD26 /// SNORD27 /// SNORD28 /// SNORD29 /// SNORD31 / Fold change vs veh, SNHG1 /// SNORD22 /// SNORD25 /// SNORD26 /// SNORD27 /// SNORD28 /// SNORD29 /// SNORD31 / Fold change (Aza/veh), C12orf56 (ProbeSet 11735607_a_at) / Fold change (ACY-1035/veh), C12orf56 (ProbeSet 11735607_a_at) / Fold change (Aza/veh), FGFR1OP (ProbeSet 11751329_s_at) / Fold change (ACY-1035/veh), FGFR1OP (ProbeSet 11751329_s_at) / Fold change (Aza/veh), VPS36 (ProbeSet 11739960_a_at) / Fold change (ACY-1035/veh), VPS36 (ProbeSet 11739960_a_at) / RFU SYPL1 (11715823_x_at) / Fold change /veh SYPL1 (11715823_x_at) / RFU IGFBP7 (11715501_s_at) / Fold change /veh IGFBP7 (11715501_s_at) / RFU REEP3 (11722064_at) / Fold change /veh REEP3 (11722064_at) / RFU IGLL1 (11728026_x_at) / Fold change /veh IGLL1 (11728026_x_at): dose or concentration left out as unconfirmed
Conditions: ProbeSet 11757268_x_at; LIST B

In the case of `Nc1ccc(-c2cccs2)cc1NC(=O)c1ccc2c(c1)cc(C1CC1)n2CCN1CCOCC1` [ACY-1035], the “RFU, HNRNPA1” value is reported as 4786.54 RFU.
